Assay results taken from ChEMBL document CHEMBL5113480, “Discovery of novel biphenyl-substituted pyridone derivatives as potent non-nucleoside reverse transcriptase inhibitors with promising oral bioavailability” (Eur J Med Chem, 2022).

Legend:
[1] = test system: Human immunodeficiency virus 1; assay: Antiviral activity against HIV-1 K103N-Y181C mutant infected in human MT4 cells assessed as reduction in viral replication by MTT assay; format: functional, organism-based; conditions: Human immunodeficiency virus 1, K103N-Y181C mutant
[2] = Selectivity index, ratio of CC50 for cytotoxicity against human MT4 cells to EC50 of Anti-HIV activity against HIV-1 IIIB infected in human MT4 cells; format: toxicity, cell-based; conditions: read-out: Ratio CC50/EC50
[3] = Cytotoxicity against human MT4 cells assessed as reduction on cell growth by MTT assay; format: toxicity, cell-based
[4] = test system: Human immunodeficiency virus 1; assay: Antiviral activity against HIV-1 F227L-V106A mutant infected in human MT4 cells assessed as reduction in viral replication by MTT assay; format: functional, organism-based; conditions: Human immunodeficiency virus 1, F227L-V106A mutant
[5] = test system: Human immunodeficiency virus 1; assay: Antiviral activity against HIV-1 IIIB infected in human MT4 cells assessed as reduction in viral replication by MTT assay; format: functional, organism-based; conditions: Human immunodeficiency virus 1, IIIB
[6] = biological target: Human immunodeficiency virus type 1 reverse transcriptase (Human immunodeficiency virus 1, UniProt Q72547); assay: Inhibition of wild type HIV-1 Reverse transcriptase
[7] = test system: Human immunodeficiency virus 1; assay: Antiviral activity against HIV-1 E138K mutant infected in human MT4 cells assessed as reduction in viral replication by MTT assay; format: functional, organism-based; conditions: Human immunodeficiency virus 1, E138K mutant
[8] = test system: Human immunodeficiency virus 1; assay: Antiviral activity against HIV-1 Y181C mutant infected in human MT4 cells assessed as reduction in viral replication by MTT assay; format: functional, organism-based; conditions: Human immunodeficiency virus 1, Y181C mutant
[9] = test system: Human immunodeficiency virus 1; assay: Antiviral activity against HIV-1 Y188L mutant infected in human MT4 cells assessed as reduction in viral replication by MTT assay; format: functional, organism-based; conditions: Human immunodeficiency virus 1, Y188L mutant
[10] = test system: Human immunodeficiency virus 1; assay: Antiviral activity against HIV-1 L100I mutant infected in human MT4 cells assessed as reduction in viral replication by MTT assay; format: functional, organism-based; conditions: Human immunodeficiency virus 1, L100I mutant
[11] = test system: Human immunodeficiency virus 1; assay: Antiviral activity against HIV-1 K103N mutant infected in human MT4 cells assessed as reduction in viral replication by MTT assay; format: functional, organism-based; conditions: Human immunodeficiency virus 1, K103N mutant
[12] = test system: Human immunodeficiency virus 1; assay: Antiviral activity against HIV-1 ROD infected in human MT4 cells assessed as reduction in viral replication by MTT assay; format: functional, organism-based

Cn1c(Cn2ccc(C(F)(F)F)c(Oc3cc(C#N)cc(-c4ccc(F)c(C#N)c4)c3)c2=O)n[nH]c1=O
EC50 [1]: 1.01 µM
selectivity ratio [2]: 2060
CC50 [3]: 87.9 µM
EC50 [4]: > 35 µM
EC50 [5]: 0.043 µM
IC50 [6]: 0.29 µM
EC50 [7]: 0.077 µM
EC50 [8]: 0.45 µM
EC50 [9]: 1.52 µM
EC50 [10]: 0.089 µM
EC50 [11]: 0.051 µM
EC50 [12]: > 35 µM

Cc1cc(Oc2c(C(F)(F)F)ccn(Cc3n[nH]c(=O)n3C)c2=O)ccc1-c1cccc(F)c1
EC50 [1]: > 35 µM
selectivity ratio [2]: 20.1
CC50 [3]: 55.9 µM
EC50 [4]: > 35 µM
EC50 [5]: 2.77 µM
IC50 [6]: 4.71 µM
EC50 [7]: 4 µM
EC50 [8]: > 35 µM
EC50 [9]: > 35 µM
EC50 [10]: 2.14 µM
EC50 [11]: 10.9 µM
EC50 [12]: > 35 µM

Cc1cc(Oc2c(C(F)(F)F)ccn(Cc3n[nH]c(=O)n3C)c2=O)ccc1-c1ccc(C#N)cc1
EC50 [1]: > 35 µM
selectivity ratio [2]: 24
CC50 [3]: 52.1 µM
EC50 [4]: > 35 µM
EC50 [5]: 2.17 µM
IC50 [6]: 4.2 µM
EC50 [7]: 3.68 µM
EC50 [8]: 8.83 µM
EC50 [9]: > 35 µM
EC50 [10]: 2.33 µM
EC50 [11]: 8.35 µM
EC50 [12]: > 35 µM

Cc1cc(-c2cccc(C#N)c2)ccc1Oc1c(C(F)(F)F)ccn(Cc2n[nH]c(=O)n2C)c1=O
EC50 [1]: 6.69 µM
selectivity ratio [2]: 20.2
CC50 [3]: 27.2 µM
EC50 [4]: > 35 µM
EC50 [5]: 1.35 µM
IC50 [6]: 4.73 µM
EC50 [7]: 1.81 µM
EC50 [8]: 4.75 µM
EC50 [9]: > 35 µM
EC50 [10]: 1.38 µM
EC50 [11]: 1.04 µM
EC50 [12]: > 35 µM

Cn1c(Cn2ccc(C(F)(F)F)c(Oc3ccc(-c4cc(F)cc(C#N)c4)cc3F)c2=O)n[nH]c1=O
EC50 [1]: > 35 µM
selectivity ratio [2]: 20.6
CC50 [3]: 69.2 µM
EC50 [4]: 38.9 µM
EC50 [5]: 3.36 µM
IC50 [6]: 5.98 µM
EC50 [7]: 4.02 µM
EC50 [8]: 38.8 µM
EC50 [9]: 41.5 µM
EC50 [10]: 3.72 µM
EC50 [11]: 8.33 µM
EC50 [12]: > 35 µM

Cn1c(Cn2ccc(C(F)(F)F)c(Oc3ccc(-c4cccc(C#N)c4)c(F)c3)c2=O)n[nH]c1=O
EC50 [1]: 30.6 µM
selectivity ratio [2]: 424
CC50 [3]: 104 µM
EC50 [4]: > 35 µM
EC50 [5]: 0.25 µM
IC50 [6]: 0.45 µM
EC50 [7]: 0.8 µM
EC50 [8]: 4.84 µM
EC50 [9]: 46.3 µM
EC50 [10]: 0.7 µM
EC50 [11]: 1.22 µM
EC50 [12]: > 35 µM

Cc1cc(-c2ccc(C#N)cc2)ccc1Oc1c(C(F)(F)F)ccn(Cc2n[nH]c(=O)n2C)c1=O
EC50 [1]: 6.55 µM
selectivity ratio [2]: 21.7
CC50 [3]: 33.4 µM
EC50 [4]: > 35 µM
EC50 [5]: 1.54 µM
IC50 [6]: 4.8 µM
EC50 [7]: 2.42 µM
EC50 [8]: 6.26 µM
EC50 [9]: > 35 µM
EC50 [10]: 1.63 µM
EC50 [11]: 1.65 µM
EC50 [12]: > 35 µM

Cn1c(Cn2ccc(C(F)(F)F)c(Oc3c(F)cc(-c4cc(F)cc(C#N)c4)cc3F)c2=O)n[nH]c1=O
EC50 [1]: > 35 µM
selectivity ratio [2]: 10.2
CC50 [3]: 16.6 µM
EC50 [4]: > 35 µM
EC50 [5]: 1.64 µM
IC50 [6]: 3.25 µM
EC50 [7]: 5.2 µM
EC50 [8]: > 35 µM
EC50 [9]: > 35 µM
EC50 [10]: 2.97 µM
EC50 [11]: 2.07 µM
EC50 [12]: > 35 µM

Cc1cc(-c2cccc(F)c2)ccc1Oc1c(C(F)(F)F)ccn(Cc2n[nH]c(=O)n2C)c1=O
EC50 [1]: > 35 µM
selectivity ratio [2]: 5.2
CC50 [3]: 26.7 µM
EC50 [4]: > 35 µM
EC50 [5]: 5.14 µM
IC50 [6]: 5.44 µM
EC50 [7]: 3.99 µM
EC50 [8]: > 35 µM
EC50 [9]: > 35 µM
EC50 [10]: 3.64 µM
EC50 [11]: 2.59 µM
EC50 [12]: > 35 µM

Cn1c(Cn2ccc(C(F)(F)F)c(Oc3c(F)cc(-c4cccc(C#N)c4)cc3F)c2=O)n[nH]c1=O
EC50 [1]: > 35 µM
selectivity ratio [2]: 18.7
CC50 [3]: 21.2 µM
EC50 [4]: > 35 µM
EC50 [5]: 1.14 µM
IC50 [6]: 2.57 µM
EC50 [7]: 3.06 µM
EC50 [8]: 8.64 µM
EC50 [9]: > 35 µM
EC50 [10]: 1.85 µM
EC50 [11]: 2.24 µM
EC50 [12]: > 35 µM

Cn1c(Cn2ccc(C(F)(F)F)c(Oc3ccc(-c4cccc(C#N)c4)cc3)c2=O)n[nH]c1=O
EC50 [1]: > 35 µM
selectivity ratio [2]: 23.7
CC50 [3]: 114 µM
EC50 [4]: > 35 µM
EC50 [5]: 4.79 µM
IC50 [6]: 14.4 µM
EC50 [7]: 12.2 µM
EC50 [8]: 39.1 µM
EC50 [9]: > 35 µM
EC50 [10]: 10.8 µM
EC50 [11]: 14.3 µM
EC50 [12]: > 35 µM
